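Grown in 96-well plates, cells were treated for 48 hours with each compound at five concentrations. Insufficient inhibition: endpoint recorded as highest concentration tested. Definition used: TGI = concentration required for complete inhibition of growth.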
Assays:
Assay in all cases: NCI tumour cell line growth inhibition, 48 h
[1] = tested on: 786-0 renal
[2] = tested on: A498 renal
[3] = tested on: A549 NSCLC
[4] = tested on: ACHN renal
[5] = tested on: CAKI-1 renal
[6] = tested on: CCRF-CEM leukemia
[7] = tested on: COLO 205 colon
[8] = tested on: DLD-1 colon
[9] = tested on: DMS 114 small cell lung
[10] = tested on: DMS 273 small cell lung
[11] = tested on: EKVX NSCLC
[12] = tested on: HCC-2998 colon
[13] = tested on: HCT-116 colon
[14] = tested on: HCT-15 colon
[15] = tested on: HL-60(TB) leukemia
[16] = tested on: HOP-18 NSCLC
[17] = tested on: HOP-62 NSCLC
[18] = tested on: HOP-92 NSCLC
[19] = tested on: HT29 colon
[20] = tested on: IGROV1 ovarian
[21] = tested on: K-562 leukemia
[22] = tested on: KM12 colon
[23] = tested on: KM20L2 colon
[24] = tested on: LOX IMVI melanoma
[25] = tested on: LXFL 529 NSCLC
[26] = tested on: M14 melanoma
[27] = tested on: MALME-3M melanoma
[28] = tested on: MOLT-4 leukemia
[29] = tested on: NCI-H23 lung
[30] = tested on: NCI-H460 lung
[31] = tested on: OVCAR-3 ovarian
[32] = tested on: OVCAR-4 ovarian
[33] = tested on: OVCAR-5 ovarian
[34] = tested on: OVCAR-8 ovarian
[35] = tested on: RPMI-8226 leukemia
[36] = tested on: RXF 393 renal
[37] = tested on: RXF-631 renal
[38] = tested on: SF-268 CNS
[39] = tested on: SF-295 CNS
[40] = tested on: SF-539 CNS
[41] = tested on: SK-MEL-2 melanoma
[42] = tested on: SK-MEL-5 melanoma
[43] = tested on: SK-OV-3 ovarian
[44] = tested on: SN12C renal
[45] = tested on: SNB-19 CNS
[46] = tested on: SNB-75 CNS
[47] = tested on: SNB-78 CNS
[48] = tested on: SW-620 colon
[49] = tested on: TK-10 renal
[50] = tested on: U251 CNS
[51] = tested on: UACC-257 melanoma
[52] = tested on: UACC-62 melanoma
[53] = tested on: UO-31 renal
[54] = tested on: XF 498 CNS

Measured: TGI

CCCCCCCCCCCCCC(=O)OCC1OC(=O)CC1O (centres undefined)
61.5 µM: [21]
47.9 µM: [26]
81.6 µM: [53]
67.3 µM: [16]
74.5 µM: [14]
40.2 µM: [18]
> 100 µM: [1] | [2] | [3] | [4] | [5] | [6] | [7] | [8] | [9] | [10] | [11] | [12] | [13] | [15] | [17] | [19] | [20] | [22] | [23] | [24] | [25] | [27] | [28] | [29] | [30] | [31] | [32] | [33] | [34] | [35] | [36] | [37] | [38] | [39] | [40] | [41] | [42] | [43] | [44] | [45] | [46] | [47] | [48] | [49] | [50] | [51] | [52] | [54]
